Measurements reported in ChEMBL document CHEMBL1909046, “DrugMatrix in vitro pharmacology data”.

What was measured:
Adenosine receptor A1 = biological target: T1, Adenosine receptor A1 (Homo sapiens, UniProt P30542); assay type: cell membranes, Membrane; details: cho;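 also: radioligand binding assay at the adenosine A1 receptor, with DPCPX serving as the labelled ligand; in other assays of this panel Not Active means under 50% inhibition at 10 µM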
T1 sequence (P30542 whole entry): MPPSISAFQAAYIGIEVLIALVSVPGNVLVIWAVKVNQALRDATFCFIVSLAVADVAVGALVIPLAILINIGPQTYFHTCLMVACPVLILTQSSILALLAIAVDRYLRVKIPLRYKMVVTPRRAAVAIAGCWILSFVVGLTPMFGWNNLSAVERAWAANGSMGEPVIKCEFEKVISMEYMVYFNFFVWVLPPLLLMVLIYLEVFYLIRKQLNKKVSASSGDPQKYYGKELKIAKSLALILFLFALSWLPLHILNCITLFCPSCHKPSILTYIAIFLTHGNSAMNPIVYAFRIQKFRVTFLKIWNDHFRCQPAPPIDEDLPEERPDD

[1] = biological target: C-C chemokine receptor type 2 (Homo sapiens, UniProt P41597); assay type: cell membranes, CHO-K1, Membrane; details: cho-k1; also: in other assays of this panel Not Active means under 50% inhibition at 10 µM
[2] = biological target: T2, C-C chemokine receptor type 4 (Homo sapiens, UniProt P51679); assay type: cell membranes, Membrane; details: chem-1; also: in other assays of this panel Not Active means under 50% inhibition at 10 µM
T2 sequence (P51679 whole entry): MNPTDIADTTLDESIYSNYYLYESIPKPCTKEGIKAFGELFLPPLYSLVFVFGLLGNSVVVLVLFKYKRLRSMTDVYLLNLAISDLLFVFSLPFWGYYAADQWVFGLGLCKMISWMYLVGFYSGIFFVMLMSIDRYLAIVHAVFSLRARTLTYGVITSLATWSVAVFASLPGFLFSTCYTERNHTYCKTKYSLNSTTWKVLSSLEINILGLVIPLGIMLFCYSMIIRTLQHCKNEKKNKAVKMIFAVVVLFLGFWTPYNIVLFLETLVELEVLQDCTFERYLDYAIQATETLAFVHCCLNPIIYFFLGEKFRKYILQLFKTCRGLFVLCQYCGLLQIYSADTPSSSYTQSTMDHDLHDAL

Progesterone receptor = biological target: T3, Progesterone receptor (Bos taurus, UniProt Q690N0); assay: DRUGMATRIX: Progesterone radioligand binding (ligand: [3H] R-5020); assay type: tissue-based, Uterus; details: Not Active = under 50% inhibition at 10 µM
T3 sequence (Q690N0 whole entry): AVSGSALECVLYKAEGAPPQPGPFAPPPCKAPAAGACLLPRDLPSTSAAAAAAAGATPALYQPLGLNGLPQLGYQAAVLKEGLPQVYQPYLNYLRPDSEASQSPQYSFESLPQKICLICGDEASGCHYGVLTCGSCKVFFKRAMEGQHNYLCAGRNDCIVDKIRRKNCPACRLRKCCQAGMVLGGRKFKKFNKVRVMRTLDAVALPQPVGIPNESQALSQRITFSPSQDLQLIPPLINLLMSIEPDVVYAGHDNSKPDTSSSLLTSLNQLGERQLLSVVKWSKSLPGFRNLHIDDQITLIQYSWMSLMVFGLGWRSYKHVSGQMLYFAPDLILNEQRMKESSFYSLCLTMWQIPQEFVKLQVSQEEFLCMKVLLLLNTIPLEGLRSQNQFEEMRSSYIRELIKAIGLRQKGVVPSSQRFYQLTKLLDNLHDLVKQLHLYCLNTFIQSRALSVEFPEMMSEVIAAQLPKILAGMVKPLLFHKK

Cytochrome P450 2E1 = Cytochrome P450 2E1 (Homo sapiens, UniProt P05181); details: bti-tn-5b1-4; also: in other assays of this panel Not Active means under 50% inhibition at 10 µM
[3] = biological target: Voltage-gated inwardly rectifying potassium channel KCNH2 (Homo sapiens, UniProt Q12809); details: hek293; also: in other assays of this panel Not Active means under 50% inhibition at 10 µM
[4] = DRUGMATRIX: Calcium Channel Type L, Dihydropyridine radioligand binding (ligand: [3H] Nitrendipine); assay type: cell membranes, Rattus norvegicus, Wistar, Cerebral cortex, Membrane; details: Not Active = under 50% inhibition at 10 µM
[5] = biological target: T4, Polyunsaturated fatty acid lipoxygenase ALOX15 (Oryctolagus cuniculus, UniProt P12530); assay: biochemical; assay type: tissue-based, Reticulocytes
T4 sequence (P12530 whole entry): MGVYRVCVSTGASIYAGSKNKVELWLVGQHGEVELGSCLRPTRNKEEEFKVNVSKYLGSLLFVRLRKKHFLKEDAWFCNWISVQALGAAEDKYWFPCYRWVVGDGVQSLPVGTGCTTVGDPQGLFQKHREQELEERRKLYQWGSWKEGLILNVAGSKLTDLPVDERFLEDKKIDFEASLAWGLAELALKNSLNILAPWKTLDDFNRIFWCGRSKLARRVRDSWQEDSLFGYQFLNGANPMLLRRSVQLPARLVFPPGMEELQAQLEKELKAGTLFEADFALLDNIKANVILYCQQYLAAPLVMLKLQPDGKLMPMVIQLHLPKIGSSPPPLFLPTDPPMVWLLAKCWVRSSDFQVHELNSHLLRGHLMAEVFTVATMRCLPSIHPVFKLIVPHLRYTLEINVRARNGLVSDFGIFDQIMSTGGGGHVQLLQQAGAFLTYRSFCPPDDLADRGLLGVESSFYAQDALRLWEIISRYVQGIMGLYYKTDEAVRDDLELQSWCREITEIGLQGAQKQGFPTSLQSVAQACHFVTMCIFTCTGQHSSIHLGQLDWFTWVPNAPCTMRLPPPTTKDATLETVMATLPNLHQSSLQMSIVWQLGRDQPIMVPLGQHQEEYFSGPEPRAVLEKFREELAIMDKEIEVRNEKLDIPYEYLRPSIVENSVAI

[6] = biological target: T5, Cysteinyl leukotriene receptor 1 (Homo sapiens, UniProt Q9Y271); assay type: cell membranes, CHO-K1, Membrane; details: cho-k1; also: in other assays of this panel Not Active means under 50% inhibition at 10 µM
T5 sequence (Q9Y271 whole entry): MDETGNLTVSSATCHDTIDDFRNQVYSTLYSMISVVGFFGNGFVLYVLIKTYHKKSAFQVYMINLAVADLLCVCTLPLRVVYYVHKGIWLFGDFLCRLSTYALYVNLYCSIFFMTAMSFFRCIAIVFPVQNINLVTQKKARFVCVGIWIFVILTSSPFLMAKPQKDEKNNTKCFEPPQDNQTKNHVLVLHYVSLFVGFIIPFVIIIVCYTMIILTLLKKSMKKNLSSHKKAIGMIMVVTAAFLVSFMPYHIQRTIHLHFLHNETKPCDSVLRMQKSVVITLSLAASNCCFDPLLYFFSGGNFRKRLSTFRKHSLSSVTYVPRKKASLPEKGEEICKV

C-C chemokine receptor type 2, sequence (P41597 whole entry): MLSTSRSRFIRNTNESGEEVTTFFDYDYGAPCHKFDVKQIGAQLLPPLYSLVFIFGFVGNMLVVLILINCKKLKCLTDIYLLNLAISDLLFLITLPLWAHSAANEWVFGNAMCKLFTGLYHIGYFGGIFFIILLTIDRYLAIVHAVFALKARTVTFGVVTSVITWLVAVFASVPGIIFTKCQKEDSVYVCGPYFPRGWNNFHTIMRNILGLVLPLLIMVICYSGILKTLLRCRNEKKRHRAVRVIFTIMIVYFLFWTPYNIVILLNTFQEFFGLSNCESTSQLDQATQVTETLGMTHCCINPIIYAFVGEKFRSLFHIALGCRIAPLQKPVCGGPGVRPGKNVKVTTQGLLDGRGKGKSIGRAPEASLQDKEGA
Cytochrome P450 2E1, sequence (P05181 whole entry): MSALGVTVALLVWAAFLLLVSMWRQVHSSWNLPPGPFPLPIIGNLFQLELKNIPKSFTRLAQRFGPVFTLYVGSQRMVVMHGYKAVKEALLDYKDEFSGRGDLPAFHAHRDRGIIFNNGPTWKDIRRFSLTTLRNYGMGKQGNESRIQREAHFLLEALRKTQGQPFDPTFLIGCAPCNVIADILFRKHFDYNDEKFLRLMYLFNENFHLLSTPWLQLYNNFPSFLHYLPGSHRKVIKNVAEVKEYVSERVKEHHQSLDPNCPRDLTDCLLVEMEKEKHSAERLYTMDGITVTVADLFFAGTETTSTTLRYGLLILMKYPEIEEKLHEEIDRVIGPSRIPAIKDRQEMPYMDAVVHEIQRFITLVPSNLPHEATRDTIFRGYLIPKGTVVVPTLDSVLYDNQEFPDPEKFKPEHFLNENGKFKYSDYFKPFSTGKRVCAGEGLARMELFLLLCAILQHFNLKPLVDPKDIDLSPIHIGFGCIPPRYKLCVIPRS
Voltage-gated inwardly rectifying potassium channel KCNH2, sequence (Q12809 whole entry): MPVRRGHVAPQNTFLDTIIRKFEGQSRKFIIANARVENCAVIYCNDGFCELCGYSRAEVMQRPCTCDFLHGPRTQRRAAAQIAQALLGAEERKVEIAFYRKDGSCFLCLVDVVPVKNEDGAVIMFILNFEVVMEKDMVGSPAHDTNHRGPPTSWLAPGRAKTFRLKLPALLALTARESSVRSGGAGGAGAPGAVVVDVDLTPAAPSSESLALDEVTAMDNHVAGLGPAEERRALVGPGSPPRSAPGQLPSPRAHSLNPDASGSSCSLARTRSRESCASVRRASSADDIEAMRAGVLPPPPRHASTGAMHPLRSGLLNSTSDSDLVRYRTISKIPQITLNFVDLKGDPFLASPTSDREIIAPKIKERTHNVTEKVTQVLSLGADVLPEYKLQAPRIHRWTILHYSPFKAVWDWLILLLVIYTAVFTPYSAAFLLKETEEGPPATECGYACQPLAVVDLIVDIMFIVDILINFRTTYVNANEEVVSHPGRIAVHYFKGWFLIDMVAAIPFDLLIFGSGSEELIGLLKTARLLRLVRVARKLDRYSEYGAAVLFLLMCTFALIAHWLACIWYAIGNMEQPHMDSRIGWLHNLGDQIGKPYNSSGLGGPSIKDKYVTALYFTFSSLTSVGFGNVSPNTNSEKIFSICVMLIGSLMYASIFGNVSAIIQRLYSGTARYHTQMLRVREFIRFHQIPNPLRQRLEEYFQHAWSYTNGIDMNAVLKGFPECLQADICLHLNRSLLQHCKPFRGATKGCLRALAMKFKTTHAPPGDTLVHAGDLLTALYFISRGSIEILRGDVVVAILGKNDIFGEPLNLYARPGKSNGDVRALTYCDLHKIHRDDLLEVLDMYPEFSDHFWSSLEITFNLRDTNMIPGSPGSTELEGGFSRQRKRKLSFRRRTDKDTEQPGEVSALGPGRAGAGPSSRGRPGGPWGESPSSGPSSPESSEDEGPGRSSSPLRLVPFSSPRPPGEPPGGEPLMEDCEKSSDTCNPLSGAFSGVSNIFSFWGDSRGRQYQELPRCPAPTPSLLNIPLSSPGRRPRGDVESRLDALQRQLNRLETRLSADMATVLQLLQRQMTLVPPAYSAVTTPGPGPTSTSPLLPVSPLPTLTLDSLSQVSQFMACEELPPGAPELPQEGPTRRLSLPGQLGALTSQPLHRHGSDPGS

SMILES	IC50 (Adenosine receptor A1)	IC50 [1]	IC50 [2]	IC50 (Progesterone receptor)	IC50 (Cytochrome P450 2E1)	Ki (Cytochrome P450 2E1)	IC50 [3]	Ki [3]	IC50 [4]	Ki [4]	IC50 ([5]; reticulocytes)	IC50 [6]	IC50 ([5]; read-out: IC50) [nM]	IC50 ([4]; read-out: IC50) [nM]	Ki ([4]; read-out: Ki) [nM]
[Cl-].[Cl-].[Zn+2] [ZINC CHLORIDE]	Not Active	Not Active	Not Active	Not Active	Not Active	Not Active	Not Active	Not Active	Not Active	Not Active	Not Active	Not Active			
CN1C(C(=O)Nc2ccccn2)=C(O)c2sccc2S1(=O)=O [TENOXICAM]	Not Active	Not Active	Not Active	Not Active	Not Active	Not Active	Not Active	Not Active	Not Active	Not Active	Not Active	Not Active			
COc1cc(NS(=O)(=O)c2ccc(N)cc2)nc(OC)n1 [SULFADIMETHOXINE]	Not Active	Not Active	Not Active	Not Active	Not Active	Not Active	Not Active	Not Active	Not Active	Not Active	Not Active	Not Active			
CC(=O)N[C@@H]1[C@H](Oc2c3cc4cc2Oc2ccc(cc2Cl)[C@@H](O[C@@H]2O[C@@H](CO)[C@@H](O)[C@H](O)[C@@H]2NC(C)=O)[C@@H]2NC(=O)[C@H](NC(=O)[C@@H]4NC(=O)[C@H]4NC(=O)[C@@H](Cc5ccc(c(Cl)c5)O3)NC(=O)[C@H](N)c3ccc(O)c(c3)Oc3cc(O)cc4c3)c3ccc(O)c(c3)-c3c(O[C@H]4O[C@H](CO)[C@@H](O)[C@@H](O)[C@@H]4O)cc(O)cc3[C@@H](C(=O)O)NC2=O)O[C@@H](CO)[C@@H](O)[C@@H]1O	Not Active	Not Active	Not Active	Not Active	Not Active	Not Active	Not Active	Not Active	Not Active	Not Active	Not Active	Not Active			
O=C1CCC(N2C(=O)c3ccccc3C2=O)C(=O)N1 (stereo unspecified) [THALIDOMIDE]	Not Active	Not Active	Not Active	Not Active	Not Active	Not Active	Not Active	Not Active	Not Active	Not Active	Not Active	Not Active			
CC[C@]1(O)C[C@@H]2CN(CCc3c([nH]c4ccccc34)[C@@](C(=O)OC)(c3cc4c(cc3OC)N(C)[C@H]3[C@@](O)(C(=O)OC)[C@H](OC(C)=O)[C@]5(CC)C=CCN6CC[C@]43[C@@H]65)C2)C1 [VINBLASTINE]	Not Active	Not Active	Not Active	Not Active	Not Active	Not Active	Not Active	Not Active	Not Active	Not Active		Not Active	5040		
CC1=C(CC(=O)O)c2cc(F)ccc2/C1=C\c1ccc([S+](C)[O-])cc1 (stereo unspecified)	Not Active	Not Active	Not Active	Not Active	Not Active	Not Active	Not Active	Not Active	Not Active	Not Active	Not Active	Not Active			
CC(C)C[C@H](NC(=O)[C@@H](O)[C@H](N)Cc1ccccc1)C(=O)O [UBENIMEX]	Not Active	Not Active	Not Active	Not Active	Not Active	Not Active	Not Active	Not Active	Not Active	Not Active	Not Active	Not Active			
CC(=O)CC(c1ccccc1)c1c(O)c2ccccc2oc1=O (stereo unspecified) [WARFARIN]	Not Active	Not Active	Not Active	Not Active	Not Active	Not Active	Not Active	Not Active	Not Active	Not Active	Not Active	Not Active			
COCCCOc1ccnc(C[S+]([O-])c2nc3ccccc3[nH]2)c1C (stereo unspecified) [RABEPRAZOLE]	Not Active	Not Active	Not Active	Not Active	Not Active	Not Active	Not Active	Not Active	Not Active	Not Active	Not Active	Not Active			
N[C@H](CSC(=S)NCc1ccccc1)C(=O)O	Not Active	Not Active	Not Active	Not Active	Not Active	Not Active	Not Active	Not Active	Not Active	Not Active	Not Active	Not Active			
[H]/N=C(/N)N[C@H]1[C@H](O)[C@@H](O)[C@H](O[C@@H]2O[C@@H](C)[C@](O)(C=O)[C@H]2O[C@@H]2O[C@@H](CO)[C@H](O)[C@@H](O)[C@@H]2NC)[C@@H](N/C(N)=N\[H])[C@@H]1O [STREPTOMYCIN]	Not Active	Not Active	Not Active	Not Active	Not Active	Not Active	Not Active	Not Active	Not Active	Not Active	Not Active	Not Active			
O=C(c1ccc(OCCN2CCCCC2)cc1)c1c(-c2ccc(O)cc2)sc2cc(O)ccc12 [RALOXIFENE]	Not Active	Not Active	Not Active	Not Active	Not Active	Not Active	Not Active	Not Active			Not Active	Not Active		388	249
